Data taken from patent US11286263B2, “Macrocyclic fluorine substituted indole derivatives” (The Broad Institute, Inc., priority 2017, dated 2022).
pIC50: −log10 of the molar value. Several values for one entry are separate records, joined by “and”; a condition that tells them apart may be missing. Equal entries are not always repeated. Where two headings read alike, the source gives them in different places.

What was measured:
BCL-2 = BCL-2 (Homo sapiens (Human), UniProt P10415); experiment: Protein-protein interaction assay BCL-2/Bad BH3 peptide (BCL-2 assay), TR-FRET; type: binding; conditions: BCL-2/Bad BH3 peptide TR-FRET; median
Description: Assay 3 Protein-Protein Interaction assay: BCL-2/Bad BH3 Peptide (BCL-2 Assay)
The dose-dependent inhibition by the compounds described in this invention of the interaction between BCL-2 and the BH3 domain of Bad (both human) was determined using a steady state binding competition assay with time-resolved fluorescence energy transfer (TR-FRET) readout. For that purpose BCL-2 (amino acids 1-211, C-terminal fused to a hexahistidine (6× His) tag (SEQ ID 5) and a synthetic Bad BH3-derived peptide of sequence Biotin-PEG2-PEG2-NLWAAQRYGRELRR-Nle-SDEFVDSFKK-amide (SEQ ID 4) served as protein receptor and tracer ligand respectively. The recombinant BCL-2 protein (expressed in E. coli) was purchased from BPS Bioscience (San Diego, Calif., USA). The Bad BH3-derived peptide can be obtained from e.g. Biosyntan (Berlin, Germany).
In the assay 11 different concentrations of each compound (0.1 nM, 0.33 nM, 1.1 nM, 3.8 nM, 13 nM, 44 nM, 0.15 μM, 0.51 μM, 1.7 μM, 5.9 μM and 20 μM) were typically measured as duplicates in the same microtiter plate. For that, 100-fold concentrated DMSO solutions were prepared by serial dilutions (1:3.4) of a 2 mM stock solution in a clear, 384-well microtiter plate (Greiner Bio-One, Frickenhausen, Germany). From there, 50 nl were transferred in a dark test plate (Greiner Bio-One, Frickenhausen, Germany). The assay was initiated by addition of 2 μl of a 2,5-fold concentrated His-BCL-2 solution (usually for a 1 nM end concentration in 5 μl reaction volume) in aqueous assay buffer [50 mM Tris/HCl pH 7, 100 mM sodium chloride (NaCl), 50 mM potassium fluoride (KF), 0.005% Tween-20, 2 mM DTT, 0.1% bovine gamma globulin (BGG)] to the compounds in the assay plate. This was followed by a 10-minute incubation step at 22° C. for pre-equilibration of the putative complex between His-BCL-2 and the compounds. After that, 3 μl of a 1.67-fold concentrated solution (in assay buffer) consisting of Bad BH3-derived peptide (1 nM end concentration) and TR-FRET detection reagents [1.67 nM anti-His-Eu cryptate and 1.67 nM streptavidin-XL665 (both from Cisbio Bioassays, Codolet, France)], were added.
The mixture was incubated in the dark for one hour at 22° C. and then overnight at 4° C. The formation of BCL-2/Bad complexes was determined by measuring the resonance energy transfer of the anti-His-Eu-cryptate antibody to the streptavidin-XL665 present in the reaction. For that purpose, the fluorescence emission at 620 nm and 665 nm after excitation at 330-350 nm was measured in a TR-FRET measuring instrument, for instance a Rubystar or a Pherastar (both from BMG Lab Technologies, Offenburg, Germany) or a Viewlux (Perkin-Elmer). The ratio of the emission at 665 nm and at 622 nm was used as indicator of the amount of BCL-2/Bad complexes present.
The resulting data (ratio) were normalized, taking 0% inhibition as the mean value of control measurements (usually 32 data points) where all reagents were included. In this case 50 nl DMSO were used instead of compounds. A 100% inhibition corresponded to the mean value of control measurements (usually 32 data points) where all reagents except BCL-2 were included. IC50 values were determined by regression analysis based on a 4 parameter equation (minimum, maximum, IC50, Hill; Y=Max+(Min−Max)/(1+(X/IC50)^Hill) using the Screener Software (Genedata).

SUDHL5 [1] = experiment: Induction of caspase-3/7 activity, SUDHL5 (Assay 4); type: cell-based; conditions: Homo sapiens, SU-DHL-5, 3 h, SUDHL5 cells, Caspase-Glo 3/7, median
How it was run: (§1)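 DLBCL lines treated with compounds for 3 h at 37° C.; caspase-3/7 activity read by Caspase-Glo 3/7 luminescence. Medium-only background subtracted; EC50 fitted with bottom fixed at 1 and top set to reference compound's maximal induction.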

SUDHL10 [2] = experiment: Induction of caspase-3/7 activity, SUDHL10 (Assay 4); type: cell-based; conditions: SUDHL10 cells
How it was run: as §1

SUDHL5 [3] = experiment: Antiproliferation assay SUDHL5 (Assay 7); type: cell-based; conditions: SUDHL5 cells, CellTiter-Glo, median, read-out: IC50 Antiproli SUDHL5 [M] (median)
How it was run: (§2)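 Treated cells sat 72 h in a humidified 37 °C incubator, outer wells unused, before CellTiter-Glo reagent and a 10 min wait preceded luminescence reading; identical measurement of a parallel day 0 plate defined time zero.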

SUDHL5 [4] = experiment: Induction of cytotoxicity, SUDHL5 (Assay 6); conditions: read-out: IC50 Cytotox SUDHL5 [M] (median), SUDHL5 cells, 5 h, CellTiter-Glo
SUDHL10 [5] = experiment: Induction of cytotoxicity, SUDHL10 (Assay 6); conditions: read-out: IC50 Cytotox SUDHL10 [M] (median), SUDHL10 cells, 5 h, CellTiter-Glo
AMO-1 = experiment: Antiproliferation assay AMO-1 (Assay 7); type: cell-based; conditions: AMO-1 cells, CellTiter-Glo, single determinations, read-out: IC50 Antiproli AMO-1
How it was run: as §2

[6] = Homo sapiens, SU-DHL10, 3 h, Caspase-Glo 3/7, median

BCL-2, sequence (P10415 1-211): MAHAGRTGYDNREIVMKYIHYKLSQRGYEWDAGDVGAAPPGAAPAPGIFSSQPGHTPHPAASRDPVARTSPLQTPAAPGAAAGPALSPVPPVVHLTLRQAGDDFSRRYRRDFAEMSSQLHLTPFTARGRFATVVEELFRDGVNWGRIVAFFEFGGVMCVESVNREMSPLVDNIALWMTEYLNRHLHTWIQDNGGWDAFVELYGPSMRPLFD

| IC50 (BCL-2) [µM] | EC50 (SUDHL5 [1]) [µM] | EC50 (SUDHL10 [2]; [6]) [µM] | IC50 (SUDHL5 [3]; Homo sapiens, SU-DHL-5, 72 h) [M] | EC50 (SUDHL10 [2]; 3 h, Caspase-Glo 3/7, median) [µM] | IC50 (SUDHL5 [3]; 72 h) [M] | Compound | IC50 (SUDHL5 [4]; Homo sapiens, SU-DHL-5, 5 h) [M] | IC50 (SUDHL10 [5]; Homo sapiens, SU-DHL10, 5 h) [M] | pIC50 (AMO-1; 72 h) | pIC50 (AMO-1; Homo sapiens, AMO1, 72 h) | IC50 (SUDHL5 [4]) [M] | IC50 (SUDHL10 [5]) [M] |
| --- | --- | --- | --- | --- | --- | --- | --- | --- | --- | --- | --- | --- |
| > 20 | 0.97 | 5.8 | 5.3e-07 | – | – | Cc1c2c(nn1C)COCCCCn1c(C(=O)O)c(CCCOc3ccc(F)c4ccccc34)c3ccc(F)c-2c31 (racemic) [Example 15, (rac)-13-fluoro-1-(3-((4-fluoronaphthalen-1-yl)oxy)propyl)-11,12-dimethyl-4,5,6,7,9,11-hexahydropyrazolo[4′,3′:9,10][1]oxa[6]azacycloundecino[8,7,6-hi]indole-2-carboxylic acid] | 1.1e-06 | 3e-06 | – | – | – | – |
| > 20 | 0.84 | 2.3 | 1.2e-06 | – | – | Cc1c2c(nn1C)COCCCCn1c(C(=O)O)c(CCCOc3cccc4c3CCCC4)c3ccc(F)c-2c31 (racemic) [Example 18, (rac)-13-fluoro-11,12-dimethyl-1-(3-((5,6,7,8-tetrahydronaphthalen-1-yl)oxy)propyl)-4,5,6,7,9,11-hexahydropyrazolo[4′,3′:9,10][1]oxa[6]azacycloundecino[8,7,6-hi]indole-2-carboxylic acid] | 8.8e-07 | 1.7e-06 | 5.67 and 5.50 | 5.40 | – | – |
| > 20 | 1.4 | 4 | 1.1e-06 | – | – | Cc1cc(OCCCc2c(C(=O)O)n3c4c(c(F)ccc24)-c2c(nn(C)c2C)COCCCC3)cc(C)c1Cl (racemic) [Example 20, (rac)-1-(3-(4-chloro-3,5-dimethylphenoxy)propyl)-13-fluoro-11,12-dimethyl-4,5,6,7,9,11-hexahydropyrazolo[4′,3′:9,10][1]oxa[6]azacycloundecino[8,7,6-hi]indole-2-carboxylic acid] | 1.8e-06 | 2.6e-06 | – | – | – | – |
| > 20 | 1.6 | 4.5 | 5.5e-07 | – | – | CCc1nn(C)c2c1-c1c(F)ccc3c(CCCOc4cccc5c4CCCC5)c(C(=O)O)n(c13)CCCCOC2 (racemic) [Example 44, (rac)-12-ethyl-13-fluoro-10-methyl-1-(3-((5,6,7,8-tetrahydronaphthalen-1-yl)oxy)propyl)-4,5,6,7,9,10-hexahydropyrazolo[4′,3′:9,10][1]oxa[6]azacycloundecino[8,7,6-hi]indole-2-carboxylic acid] | 1.9e-06 | 4.2e-06 | – | 5.13 | – | – |
| > 20 | 2.5 | 7.7 | 2.9e-06 | – | – | CCc1nn(C)c2c1-c1c(F)ccc3c(CCCOc4cc(C)c(Cl)c(C)c4)c(C(=O)O)n(c13)CCCCOC2 (racemic) [Example 46, (rac)-1-(3-(4-chloro-3,5-dimethylphenoxy)propyl)-12-ethyl-13-fluoro-10-methyl-4,5,6,7,9,10-hexahydropyrazolo[4′,3′:9,10][1]oxa[6]azacycloundecino[8,7,6-hi]indole-2-carboxylic acid] | 3.1e-06 | 5.7e-06 | 5.04 | 5.09 | – | – |
| > 20 | 0.23 | 0.44 | 2.6e-07 | – | – | CCc1c2c(nn1C)CN(C)CCCCn1c(C(=O)O)c(CCCOc3cccc4c3CCC4)c3ccc(F)c-2c31 (racemic) [Example 51, (rac)-7-[3-(2,3-dihydro-1H-inden-4-yloxy)propyl]-3-ethyl-4-fluoro-2,14-dimethyl-10,11,12,13,14,15-hexahydro-2H-pyrazolo[3′,4′:8,9][1,6]diazacycloundecino[10,11,1-hi]indole-8-carboxylic acid] | 3.6e-07 | 3.6e-07 | – | – | – | – |
| > 20 | 0.28 | 0.21 | 2.3e-07 | – | – | CCc1c2c(nn1C)CN(C)CCCCn1c(C(=O)O)c(CCCOc3cccc4c3CCCC4)c3ccc(F)c-2c31 (racemic) [Example 52, (rac)-3-ethyl-4-fluoro-2,14-dimethyl-7-[3-(5,6,7,8-tetrahydronaphthalen-1-yloxy)propyl]-10,11,12,13,14,15-hexahydro-2H-pyrazolo[3′,4′:8,9][1,6]diazacycloundecino[10,11,1-hi]indole-8-carboxylic acid] | 4.3e-07 | 3.1e-07 | – | – | – | – |
| > 20 | 0.38 | 0.49 | 3.7e-07 | – | – | CCc1c2c(nn1C)CN(C)CCCCn1c(C(=O)O)c(CCCOc3cccc4cc(F)ccc34)c3ccc(F)c-2c31 (racemic) [Example 53, (rac)-3-ethyl-4-fluoro-7-{3-[(6-fluoro-1-naphthyhoxy]propyl}-2,14-dimethyl-10,11,12,13,14,15-hexahydro-2H-pyrazolo[3′,4′:8,9][1,6]diazacycloundecino[10,11,1-hi]indole-8-carboxylic acid] | 3.3e-07 | 6.9e-07 | – | – | – | – |
| > 20 | 0.23 | 0.68 | 4.4e-07 | – | – | CCc1c2c(nn1C)CN(C)CCCCn1c(C(=O)O)c(CCCOc3cccc4ccccc34)c3ccc(F)c-2c31 (racemic) [Example 54, (rac)-3-ethyl-4-fluoro-2,14-dimethyl-7-[3-(1-naphthyloxy)propyl]-10,11,12,13,14,15-hexahydro-2H-pyrazolo[3′,4′:8,9][1,6]diazacycloundecino[10,11,1-hi]indole-8-carboxylic acid] | 4.5e-07 | 1.4e-06 | – | – | – | – |
| > 20 | – | – | – | 0.54 | 3.2e-07 | CCc1c2c(nn1C)COCCCCn1c(C(=O)O)c(CCCOc3cccc4cc(F)ccc34)c3ccc(F)c-2c31 (single isomer, unassigned; enantiomer 1) [Example 24, 3-ethyl-4-fluoro-7-{3-[(6-fluoronaphthalen-1-yl)oxy]propyl}-2-methyl-2,10,11,12,13,15-hexahydropyrazolo[4′,3′:9,10][1,6]oxazacycloundecino[8,7,6-hi]indole-8-carboxylic acid (enantiomer 1)] | – | – | 6.06 | – | 3.9e-07 | 6.8e-07 |
